The values below come from patent US5932466A, “Creatine amidinohydrolase gene, a novel recombinant DNA, and a process for producing creatine amidinohydrolase” (Kikkoman Corporation, priority 1994, dated 1999).

The subject of the assay is Alcaligenes sp. KS-85 creatine amidinohydrolase, SEQ ID NO: 2 (recombinant, produced in E. coli). Description: Km determination of creatine amidinohydrolase from Lineweaver-Burk plots. Type of assay: biochemical. Particulars: urea formed quantified, 50 mM phosphate buffer pH 7.7, 37° C. As to the method:
The measurement of enzyme activity was conducted under the following conditions. 1 U of enzyme activity is defined as the amount which causes formation of 1 μmol of urea per minute.
6.63 g of creatine is dissolved in 500 ml of 50 mM phosphate buffer, pH 7.7.
10 g of .rho.-dimethylaminobenzaldehyde is dissolved in 500 ml ethanol (guaranteed reagent) and then mixed with a mixture of 575 ml deionized water and 75 ml conc. hydrochloric acid.
1) 0.9 ml of Solution 1 is pre-incubated as the substrate at 37° C. for 5 minutes.
2) 0.1 ml enzyme solution (adjusted to about 1-2 U/ml) is mixed with the substrate and allowed to react at 37° C. for 10 minutes.
3) Then, 2 ml of Solution 2 is mixed with the reaction solution.
4) Then, the mixture is allowed to stand at 25° C. for 20 minutes, and the absorbance at 435 nm is determined (OD sample).
5) As the blank, 0.9 ml of Solution 1 is incubated at 37° C. for 10 minutes and then 2 ml of Solution 2 and 0.1 ml enzyme solution are mixed with Solution 1, and the mixture is allowed to stand at 25° C. for 20 minutes, and the absorbance at 435 nm is determined (OD blank).
U/ml=ΔOD×18.06*×dilution degree

Usually Km stands for the concentration of substrate that gives half-maximal velocity.

Regarding `CN(CC(=O)O)C(=N)N` [creatine], the Km amounted to 13 mM.
